Where “and” joins values, the source holds several entries; their conditions need not be identical. Equal entries are not always repeated.
System: HL-60 cells
Assay: Chemotaxis assay: fluorescence of Di-I labeled cells migrated across radiation opaque membrane
Assay type: cell-based
Protocol: The cell line HL-60 (ATCC No. CCL 240) was maintained in logarithmic growth phase as a suspension culture at about 10^6 cells/mL. in RPMI 1640 medium (Mediatech Cellgrow, Fisher Scientific, Pittsburgh, PA.) supplemented with 20% (volume by volume) fetal bovine serum. (Hyclone Laboratories, Salt Lake City, UT). The cells were differentiated into mature myelocytes and neutrophils by incubating the cells for 48 hours at 37° C. in media containing 1.5% (volume by volume) dimethylsulfoxide.
Following the treatment with dimethylsulfoxide, the cells were incubated with 50 μM Di-I fluorescent dye (Molecular Probes, Inc., Eugene, OR) at room temperature for 0.5-2 hours. The cells were then washed with Hanks' Balanced Salt Solution (“HBSS”) (Sigma Chemical Co., St. Louis, MO.) and re-suspended in HBSS to achieve a cell concentration of 10^6 cells/mL. The fluorescence of 0.5 mL. of cell suspension was measured in a Cytofluor™ 2300 fluorescent plate reader (Millipore Corp., Marlborough, MA.).
Membrane 1: Polycarbonate film having a plurality of pores of 8 μm diameter were coated with four molecular layers of carbon and one layer of an admixture of gold and palladium in a vacuum evaporator. […] 6 mm disks of the radiation opaque membrane were glued to the bottom of inserts similar to the Millicell HA-12 mm (Millipore Corp.) or the Transwell-6.5 mm (Costar Corp., Cambridge, MA.) inserts with clear silicone rubber cement.
Membrane 2: A non-porous polyester film (18 μm thick) containing a blue dye (Aquired Technology Inc., Alpharetta, GA.) was subjected to atomic etching to produce a 10 μm thick radiation opaque membrane containing a plurality of pores of 8 μm diameter having a combined radiation blocking efficiency of approximately 99%. 6 mm disks of the radiation opaque membrane were glued to the bottoms of inserts as with membrane 1.
Each insert equipped with the either membrane 1 or membrane 2 were placed in a well of a 24-well culture plate (Falcon, Fisher Scientific). 0.5 mL of labeled cell suspension was placed inside each insert. The plate was incubated for 30 minutes at 37° C. to allow the cells to settle on the radiation opaque membrane. The fluorescence of each well was then measured with the Cytofluor™ 2300 to obtain a zero time reading. 0.5 mL of either N-formyl methionyl leucyl phenylalanine (“f-MLP”) (Sigma Chemical Co.) or HBBS was then added to each well. The fluorescence in each well was then measured at periodic time intervals using the Cytofluor™ 2300 at sensitivity setting 4. Results using membrane 1 are reported in Tables 1 and 2 and graphically illustrated in FIGS. 4 and 5. Results using membrane 2 are reported in Table 3 and graphically illustrated in FIGS. 6 and 7.

[1] = membrane 1, f-MLP/f-MLP (f-MLP also added to cell suspension immediately before start), 10^−7 M
[2] = membrane 1, insert/well HBSS/f-MLP, f-MLP Conc. = 10^−8 M
[3] = membrane 1, insert/well f-MLP/f-MLP (f-MLP added to cell suspension immediately before start), 10^−8 M
[4] = membrane 1, test solutions well/insert HBSS/f-MLP, f-MLP Conc. = 10^−7 M
[5] = membrane 2, Millicell-type insert, well 20: Insert leaked, insert/well HBSS/f-MLP, 2 × 10^−8 M
[6] = membrane 2, Millicell-type inserts, insert/well HBSS/f-MLP, f-MLP Conc. = 2 × 10^−8 M
[7] = membrane 2, Millicell-type inserts, insert/well f-MLP/f-MLP (f-MLP added to cell suspension immediately before start), 2 × 10^−8 M
[8] = membrane 2, Transwell-type inserts, insert/well HBSS/f-MLP, f-MLP Conc. = 2 × 10^−8 M
[9] = membrane 2, Transwell-type inserts, insert/well f-MLP/f-MLP (f-MLP added to cell suspension immediately before start), 2 × 10^−8 M

Q: With `CSCC[C@H](NC=O)C(=O)N[C@@H](CC(C)C)C(=O)N[C@@H](Cc1ccccc1)C(=O)O` [f-MLP, N-formyl methionyl leucyl phenylalanine] as the compound, how does the “Fluorescence 0 hr.” value (membrane 1, f-MLP/f-MLP (f-MLP also added to cell suspension immediately before start), 10^−7 M, 0 hr.) read?
A: 706

Q: What about the “Fluorescence 1 hr.” value [1] of the same compound?
A: 654

Q: And the “Fluorescence 2 hr.” value [1]?
A: 708

Q: And the “Fluorescence 3 hr.” value [1]?
A: 732

Q: And the “Fluorescence 4 hr.” value [1]?
A: 728

Q: And the “Fluorescence 5 hr.” value [1]?
A: 753

Q: And the “FLUORESCENCE 0 min.” value (membrane 1, insert/well HBSS/f-MLP, f-MLP Conc. = 10^−8 M, 0 min. (zero time reading))?
A: 2515 and 2927 and 2895 and 2631 and 2594

Q: And the “FLUORESCENCE 15 min.” value [2]?
A: 3388 and 4195 and 4165 and 3398 and 3446

Q: What about the “FLUORESCENCE 30 min.” value [2] of the same compound?
A: 3594 and 4475 and 4400 and 3584 and 3707

Q: What about the “FLUORESCENCE 60 min.” value [2] of the same compound?
A: 3614 and 4642 and 4539 and 3645 and 3813

Q: And the “FLUORESCENCE 90 min.” value [2]?
A: 3717 and 4761 and 4642 and 3728 and 3932

Q: And the “FLUORESCENCE 150 min.” value [2]?
A: 3770 and 4788 and 4655 and 3728 and 3999

Q: What about the “FLUORESCENCE 0 min.” value (membrane 1, insert/well f-MLP/f-MLP (f-MLP added to cell suspension immediately before start), 10^−8 M, 0 min.) of the same compound?
A: 2854

Q: What about the “FLUORESCENCE 15 min.” value [3] of the same compound?
A: 2675

Q: And the “FLUORESCENCE 30 min.” value [3]?
A: 2721

Q: What about the “FLUORESCENCE 60 min.” value [3] of the same compound?
A: 2721

Q: And the “FLUORESCENCE 90 min.” value [3]?
A: 2783

Q: And the “FLUORESCENCE 150 min.” value [3]?
A: 2783

Q: What about the “Fluorescence 0 hr.” value (membrane 1, test solutions well/insert HBSS/f-MLP, f-MLP Conc. = 10^−7 M, 0 hr. (zero time reading)) of the same compound?
A: 383

Q: What about the “Fluorescence 1 hr.” value [4] of the same compound?
A: 1046

Q: What about the “Fluorescence 2 hr.” value [4] of the same compound?
A: 1355

Q: What about the “Fluorescence 3 hr.” value [4] of the same compound?
A: 1433

Q: What about the “Fluorescence 4 hr.” value [4] of the same compound?
A: 1370

Q: And the “Fluorescence 5 hr.” value [4]?
A: 1359

Q: And the “Fluorescence 0 hr.” value (membrane 2, Millicell-type insert, well 20: Insert leaked, insert/well HBSS/f-MLP, 2 × 10^−8 M, 0 hr.)?
A: 1228

Q: And the “Fluorescence 0.5 hr.” value [5]?
A: 5928

Q: What about the “Fluorescence 1 hr.” value [5] of the same compound?
A: 6063

Q: And the “Fluorescence 2 hr.” value [5]?
A: 6342

Q: And the “Fluorescence 3 hr.” value [5]?
A: 6504

Q: What about the “Fluorescence 0 hr.” value (membrane 2, Millicell-type inserts, insert/well HBSS/f-MLP, f-MLP Conc. = 2 × 10^−8 M, 0 hr. (zero time reading)) of the same compound?
A: 1277 and 1242

Q: And the “Fluorescence 0.5 hr.” value [6]?
A: 1573 and 1207

Q: And the “Fluorescence 1 hr.” value [6]?
A: 1701 and 1830

Q: And the “Fluorescence 2 hr.” value [6]?
A: 1836 and 1931

Q: And the “Fluorescence 3 hr.” value [6]?
A: 1851 and 1969

Q: What about the “Fluorescence 0 hr.” value (membrane 2, Millicell-type inserts, insert/well f-MLP/f-MLP (f-MLP added to cell suspension immediately before start), 2 × 10^−8 M, 0 hr.) of the same compound?
A: 1187 and 1231

Q: And the “Fluorescence 0.5 hr.” value [7]?
A: 1181 and 1325

Q: What about the “Fluorescence 1 hr.” value [7] of the same compound?
A: 1516 and 1454

Q: What about the “Fluorescence 2 hr.” value [7] of the same compound?
A: 1622 and 1541

Q: What about the “Fluorescence 3 hr.” value [7] of the same compound?
A: 1673 and 1604

Q: And the “Fluorescence 0 hr.” value (membrane 2, Transwell-type inserts, insert/well HBSS/f-MLP, f-MLP Conc. = 2 × 10^−8 M, 0 hr. (zero time reading))?
A: 1055 and 1064 and 1097

Q: What about the “Fluorescence 0.5 hr.” value [8] of the same compound?
A: 1770 and 1454 and 1775

Q: And the “Fluorescence 1 hr.” value [8]?
A: 2066 and 1846 and 2185

Q: What about the “Fluorescence 2 hr.” value [8] of the same compound?
A: 2351 and 2143 and 2411

Q: What about the “Fluorescence 3 hr.” value [8] of the same compound?
A: 2536 and 2292 and 2432

Q: And the “Fluorescence 0 hr.” value (membrane 2, Transwell-type inserts, insert/well f-MLP/f-MLP (f-MLP added to cell suspension immediately before start), 2 × 10^−8 M, 0 hr.)?
A: 1049 and 961

Q: What about the “Fluorescence 0.5 hr.” value [9] of the same compound?
A: 1277 and 1245

Q: And the “Fluorescence 1 hr.” value [9]?
A: 1413 and 1390

Q: And the “Fluorescence 2 hr.” value [9]?
A: 1538 and 1564

Q: And the “Fluorescence 3 hr.” value [9]?
A: 1582 and 1711
